Patent US12486284B2, “Ubiquitin-specific protease inhibitor and preparation method therefor and use thereof” (CHASER THERAPEUTICS, INC., priority 2019, dated 2025)
pIC50: −log10 of the molar value. Where two headings read alike, the source gives them in different places.

What was measured:
USP28 = biological target: T1, USP28 (Homo sapiens, UniProt Q96RU2); test: USP28 activity measured using ubiquitin-rhodamine 110 method; assay type: biochemical; conditions: for pIC50: purified USP28 4 nM, ubiquitin-rhodamine 110 125 nM, 30 min preincubation
T1 construct: purchased R&D Systems
T1 sequence (Q96RU2 1-1077): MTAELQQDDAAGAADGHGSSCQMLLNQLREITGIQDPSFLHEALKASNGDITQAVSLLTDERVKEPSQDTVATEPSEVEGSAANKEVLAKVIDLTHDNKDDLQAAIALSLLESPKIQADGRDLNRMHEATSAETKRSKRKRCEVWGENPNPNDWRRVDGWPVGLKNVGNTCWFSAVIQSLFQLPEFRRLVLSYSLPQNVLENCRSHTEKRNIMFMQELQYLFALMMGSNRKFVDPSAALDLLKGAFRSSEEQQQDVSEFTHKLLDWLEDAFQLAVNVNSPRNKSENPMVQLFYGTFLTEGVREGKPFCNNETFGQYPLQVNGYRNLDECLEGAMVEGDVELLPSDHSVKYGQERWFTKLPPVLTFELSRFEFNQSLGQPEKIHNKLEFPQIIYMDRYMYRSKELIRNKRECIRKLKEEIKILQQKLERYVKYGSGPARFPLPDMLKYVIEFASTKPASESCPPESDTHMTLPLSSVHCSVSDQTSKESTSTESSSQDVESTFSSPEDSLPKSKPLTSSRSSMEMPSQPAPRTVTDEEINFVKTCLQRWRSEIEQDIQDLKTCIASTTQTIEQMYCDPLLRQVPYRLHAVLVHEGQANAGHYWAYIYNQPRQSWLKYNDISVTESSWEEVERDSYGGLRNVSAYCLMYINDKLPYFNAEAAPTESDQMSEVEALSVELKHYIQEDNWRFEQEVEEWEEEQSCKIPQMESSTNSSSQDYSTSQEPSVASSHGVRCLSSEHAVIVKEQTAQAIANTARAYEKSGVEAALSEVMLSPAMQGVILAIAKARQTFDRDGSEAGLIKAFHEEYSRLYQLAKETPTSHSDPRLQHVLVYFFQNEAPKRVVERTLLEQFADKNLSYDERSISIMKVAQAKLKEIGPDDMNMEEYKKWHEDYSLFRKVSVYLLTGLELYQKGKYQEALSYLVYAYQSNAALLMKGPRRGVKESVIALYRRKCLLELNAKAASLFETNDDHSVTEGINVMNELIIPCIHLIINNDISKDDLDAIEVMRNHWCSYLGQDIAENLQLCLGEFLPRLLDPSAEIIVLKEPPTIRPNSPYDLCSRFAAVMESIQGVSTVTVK
Experimental: USP28 activity was measured using ubiquitin-rhodamine 110 method.
(§1) Purified USP28 and the ubiquitin-rhodamine 110 substrate used for measuring DUBs activity were both from R&D Systems. Test compounds were first dissolved in DMSO to prepare a 10 mM stock solution, and then the stock solution was diluted with a buffer solution [containing 20 mM Tris-HCl (pH 8.0), 2 mM CaCl2), 3 mM BME, 0.01% Prionix, 0.01% Triton X-100] to the desired concentration (with DMSO content less than or equal to 0.5%). The dilution was mixed well with USP28 (final concentration 4 nM) in a 96-well plate and incubated at room temperature for 30 min, and then added with the substrate (ubiquitin-rhodamine 110) to 125 nM. The final volume of the whole reaction system was 20 μL. The released fluorescence (excitation wavelength 485 nm, emission wavelength 535 nm) was detected immediately on a microplate reader after the addition of the substrate. The inhibitory rate of the test compound against USP28 was calculated according to the following formula: Inhibition %=1−[(test compound+fluorescence value of substrate−fluorescence value of test compound (no substrate))/mean fluorescence value of DMSO control group−fluorescence value of test compound (no substrate)]
According to the inhibitory rates of the test compound against USP28 under different concentrations, IC50 was calculated.

USP25 = biological target: T2, USP25 (Homo sapiens, UniProt Q9UHP3); test: USP25 activity measured using ubiquitin-rhodamine 110 method; assay type: biochemical; conditions: for pIC50: purified USP25 15 nM, ubiquitin-rhodamine 110 125 nM, 30 min preincubation
T2 construct: purchased R&D Systems
T2 sequence (Q9UHP3 1-1055): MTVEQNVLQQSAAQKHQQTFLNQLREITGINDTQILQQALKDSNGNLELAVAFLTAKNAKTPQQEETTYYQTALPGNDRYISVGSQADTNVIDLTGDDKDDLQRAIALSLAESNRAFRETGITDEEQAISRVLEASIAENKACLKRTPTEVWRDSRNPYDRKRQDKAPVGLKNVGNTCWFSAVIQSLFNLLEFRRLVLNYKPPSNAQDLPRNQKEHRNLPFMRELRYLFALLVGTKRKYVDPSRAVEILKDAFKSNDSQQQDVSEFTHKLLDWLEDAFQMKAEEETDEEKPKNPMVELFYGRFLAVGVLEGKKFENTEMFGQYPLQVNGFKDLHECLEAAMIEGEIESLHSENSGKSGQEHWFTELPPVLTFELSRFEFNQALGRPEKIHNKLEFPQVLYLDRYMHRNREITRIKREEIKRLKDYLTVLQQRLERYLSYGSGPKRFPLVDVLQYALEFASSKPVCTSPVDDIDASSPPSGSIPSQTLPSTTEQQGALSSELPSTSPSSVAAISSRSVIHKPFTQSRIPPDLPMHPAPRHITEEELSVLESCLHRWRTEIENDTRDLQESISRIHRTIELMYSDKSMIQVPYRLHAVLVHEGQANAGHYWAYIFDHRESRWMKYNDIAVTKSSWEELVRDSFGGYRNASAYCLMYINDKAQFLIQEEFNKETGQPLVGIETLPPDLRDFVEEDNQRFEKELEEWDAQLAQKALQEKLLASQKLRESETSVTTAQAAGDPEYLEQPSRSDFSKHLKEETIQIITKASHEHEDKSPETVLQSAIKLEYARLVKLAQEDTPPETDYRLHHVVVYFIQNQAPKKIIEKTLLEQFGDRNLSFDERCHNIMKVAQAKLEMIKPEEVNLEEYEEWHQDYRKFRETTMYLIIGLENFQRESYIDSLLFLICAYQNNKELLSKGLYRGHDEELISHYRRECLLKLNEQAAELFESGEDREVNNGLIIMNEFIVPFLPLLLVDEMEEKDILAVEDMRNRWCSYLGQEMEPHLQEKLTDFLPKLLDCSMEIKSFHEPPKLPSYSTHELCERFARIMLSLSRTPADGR
Experimental: USP25 activity was measured using ubiquitin-rhodamine 110 method.
as §1, with “Purified USP25” for “Purified USP28”, “with USP25” for “with USP28”, “concentration 15” for “concentration 4”, “the substrate, and the” for “the substrate. The”, “against USP25” for “against USP28”
As in Example 11, according to the inhibitory rates of the test compound against USP25 under different concentrations, IC50 was calculated.

[1] = read-out: Inhibitory activity against USP28 (IC50)
[2] = read-out: Inhibitory activity against USP25 (IC50)
[3] = Inhibitory activity against USP28 (IC50)
[4] = Inhibitory activity against USP25 (IC50)
[5] = ratio of IC50 of related 3-NH2 compound (F) to IC50 of 3-NHMe compound disclosed herein (E)

pIC50 (USP28; [1]) | SMILES | pIC50 (USP25; [2]) | pIC50 (USP28; [3]) | also measured
 | CNc1c(C(=O)NCCc2ccc(N3C[C@H]4CC[C@@H](C3)N4)cc2)sc2nc(C)cc(C(F)(F)F)c12 [Compound I-27] |  | > 7.00 | pIC50 (USP25; [4]): > 7.00
 | CNc1c(C(=O)NCCc2ccc(N3C[C@H]4CC[C@@H](C3)N4)cc2)sc2nc(C(F)F)cc(C)c12 [Compound I-28] |  | > 7.00 | pIC50 (USP25; [4]): > 7.00
 | CNc1c(C(=O)NCCc2ccc(N3C[C@H]4CC[C@@H](C3)N4)cc2)sc2nc(C)c(F)cc12 [Compound I-29] | 6.00 to 7.00 | > 7.00 | 
 | CCc1nc2sc(C(=O)NCCc3ccc(N4C[C@H]5CC[C@@H](C4)N5)cc3)c(NC)c2cc1C [Compound I-31] | 6.00 to 7.00 | > 7.00 | 
 | CCc1nc2sc(C(=O)NCCc3ccc(N4C[C@H]5CC[C@@H](C4)N5)cc3)c(NC)c2c(C(F)(F)F)c1C [Compound I-32] | 5.00 to 5.30 | > 7.00 | 
 | CNc1c(C(=O)NCCc2ccc(N3C[C@H]4CC[C@@H](C3)N4)c(C)c2)sc2nc(C)ccc12 [Compound I-33] | 5.00 to 5.30 | > 7.00 | 
 | CCc1cc(CCNC(=O)c2sc3nc(C)ccc3c2NC)ccc1N1[C@@H]2CC[C@H]1CNC2 [Compound I-34] | 6.00 to 7.00 | > 7.00 | 
 | CNc1c(C(=O)NCCc2ccc(N3C[C@H]4CC[C@@H](C3)N4)c(C3CC3)c2)sc2nc(C)ccc12 [Compound I-35] | 6.00 to 7.00 | > 7.00 | 
 | CNc1c(C(=O)NCCc2ccc(N3C[C@H]4CC[C@@H](C3)N4)c(OC)c2)sc2nc(C)ccc12 [Compound I-36] |  | > 7.00 | pIC50 (USP25; [4]): > 7.00
 | CNc1c(C(=O)NCCc2ccc(N3C[C@H]4CC[C@@H](C3)N4)c(C#N)c2)sc2nc(C)ccc12 [Compound I-37] |  | > 7.00 | pIC50 (USP25; [4]): > 7.00
 | CNc1c(C(=O)NCCc2ccc(N3C[C@H]4CC[C@@H](C3)N4)c(Cl)c2)sc2nc(C)ccc12 [Compound I-38] | < 5.00 | > 7.00 | 
 | CNc1c(C(=O)NCCc2ccc(N3C[C@H]4CC[C@@H](C3)N4)c(F)c2)sc2nc(C)ccc12 [Compound I-40] | 6.00 to 7.00 | > 7.00 | 
 | CNc1c(C(=O)NCCc2cc(F)c(N3C[C@H]4CC[C@@H](C3)N4)cc2F)sc2nc(C)ccc12 [Compound I-42] | < 5.00 | > 7.00 | 
 | CNc1c(C(=O)NCCc2cc(F)c(N3C[C@H]4CC[C@@H](C3)N4)c(F)c2)sc2nc(C)ccc12 [Compound I-43] | < 5.00 | > 7.00 | 
 | CNc1c(C(=O)NCCc2cc(F)c(N3C[C@H]4CC[C@@H](C3)N4)c(Cl)c2)sc2nc(C)ccc12 [Compound I-44] | < 5.00 | > 7.00 | 
 | CNc1c(C(=O)NCCc2c(F)cc(N3C[C@H]4CC[C@@H](C3)N4)cc2F)sc2nc(C)ccc12 [Compound I-45] | < 5.00 | > 7.00 | 
 | CNc1c(C(=O)NCCc2cc(F)c(N3C[C@H]4CC[C@@H](C3)N4)c(F)c2F)sc2nc(C)ccc12 [Compound I-47] | 5.00 to 5.30 | > 7.00 | 
> 7.00 | CNc1c(C(=O)NCCc2c[nH]c3ccccc23)sc2ncccc12 [Compound I-48] | 5.00 to 5.30 |  | 
> 7.00 | CNc1c(C(=O)NCCc2c[nH]c3ccccc23)sc2nc(C)ccc12 [Compound I-49] | 5.30 to 6.00 |  | IC50(F)/IC50(E) USP28 (USP28; [5]): 5.0; IC50(F)/IC50(E) USP25 (USP25; [5]): >7
> 7.00 | CCc1ccc2c(NC)c(C(=O)NCCc3c[nH]c4ccccc34)sc2n1 [Compound I-50] | 5.30 to 6.00 |  | 
> 7.00 | CCCc1ccc2c(NC)c(C(=O)NCCc3c[nH]c4ccccc34)sc2n1 [Compound I-51] | 5.30 to 6.00 |  | 
> 7.00 | CCc1nc2sc(C(=O)NCCc3c[nH]c4ccccc34)c(NC)c2cc1C [Compound I-52] | 5.00 to 5.30 |  | 
6.00 to 7.00 | CNc1c(C(=O)NCCc2c[nH]c3ccccc23)sc2nc(C)cc(C)c12 [Compound I-53] | < 5.00 |  | 

SMILES | pIC50 (USP28; [1]) | pIC50 (USP25; [2]) | pIC50 (USP28; [3]) | also measured
CNc1c(C(=O)NCCc2ccc(N3C[C@H]4CC[C@@H](C3)N4)cc2)sc2nc(C)cc(C)c12 [Compound I-26] | 6.00 to 7.00 | 5.00 to 5.30 |  | 
CNc1c(C(=O)NCCc2ccc(N3C[C@H]4CC[C@@H](C3)N4)cc2)sc2nc(C)c(C)cc12 [Compound I-30] | 6.00 to 7.00 | 5.30 to 6.00 |  | 
CNc1c(C(=O)NCCc2ccc(N3C[C@H]4CC[C@@H](C3)N4)cc2F)sc2nc(C)ccc12 [Compound I-39] | 6.00 to 7.00 | 6.00 to 7.00 |  | 
CNc1c(C(=O)NCCc2ccc(N3C[C@H]4CC[C@@H](C3)N4)c(C(F)(F)F)c2)sc2nc(C)ccc12 [Compound I-41] | 6.00 to 7.00 | < 5.00 |  | 
CNc1c(C(=O)NCCc2ccc(N3C[C@H]4CC[C@@H](C3)N4)c(F)c2F)sc2nc(C)ccc12 [Compound I-46] | 6.00 to 7.00 | 5.00 to 5.30 |  | 
